In publication PMC11111895, “Identification of a dCache-type chemoreceptor in Campylobacter jejuni that specifically mediates chemotaxis towards methyl pyruvate” (Frontiers in Microbiology, 2024):

Assays:
[1] = molecular target: Tlp11-LBD homologue (WP_199770133.1, residues 31-330); test: MST of Tlp11-LBD homologue; assay type: binding, Helicobacter mesocricetorum; conditions: H. mesocricetorum LBD
Procedure: (§1) The His-tag dye (MO-L018 RED-tris-NTA, NanoTemper, Germany) was adjusted to a final concentration of 25 nM and used to label the purified protein with a His-tag. The compound was diluted to a series of concentrations in phosphate-buffered saline ([Duan et al., 2023]) with 0.05% Tween 20 (PBS-T) buffer and mixed in a ratio of 1:1 with protein. The mixtures were loaded into capillaries (Monolith™ Series capillaries, NanoTemper) by means of capillary action. Thermophoresis was measured using a Monolith™ NT.115 (NanoTemper) instrument, with 40% excitation and 40% MST power configuration. The time-traces of changes in fluorescence, which reflected the thermophoretic movement of labeled protein affected by different concentrations of compound were recorded, and the dose–response curves were fitted with the ‘temperature jump and thermophoresis’ mode. Data analysis was performed using MO. Affinity Analysis version 2.3 (NanoTemper) and Prism version 8.0.2 (GraphPad Software, United States).
To evaluate whether these potential Tlp11-LBD homologues could bind to methyl pyruvate, we conducted a structural analysis of the LBDs of six chemoreceptors from C. coli, H. equorum, H. himalayensis, H. mesocricetorum, H. ganmani, and C. upsaliensis using Alphafold 2. […]

C. jejuni ATCC 33560 = test: Growth curves in Minimal Essential Medium; assay type: cell-based, Campylobacter jejuni; conditions: Minimal Essential Medium with fetal bovine serum, shaking; methyl pyruvate at concentrations above 1 mM
Procedure: The C. jejuni ATCC 33560, C. jejuni WT NCTC 11168 and 11168ΩTlp11 cells were grown on a MH agar plate overnight, at 37°C, under microaerobic conditions. The colonies were suspended in PBS ([Duan et al., 2023]), pH 7.2, inoculated into Minimal Essential Medium broth (Life Technologies) containing 10% fetal bovine serum to an initial OD600 of 0.01, and grown at 37°C, 100 rpm, under microaerobic conditions. When required, Minimal Essential Medium was supplemented with different concentrations of methyl pyruvate or pyruvate (both from Macklin, China).

Tlp11-LBD Y291A = test: MST of Tlp11-LBD mutant Y291A; assay type: binding, C. jejuni ATCC 33560; conditions: max ligand 2.5 mM
Procedure: as §1
(§2) In order to confirm the contribution of L264, N268, I276, Y291, V318, and T320 to the binding to methyl pyruvate, we generated Tlp11-LBD proteins with an alanine point mutation at individual residues, to obtain the mutant proteins L264A, N268A, I276A, Y291A, V318A, and T320A, and then analyzed the binding affinities of methyl pyruvate to these mutants using MST. […]

Tlp11-LBD T320A = test: MST of Tlp11-LBD mutant T320A; assay type: binding, C. jejuni ATCC 33560; conditions: max ligand 2.5 mM
Procedure: as §1, §2

Tlp11-LBD N268A = test: MST of Tlp11-LBD mutant N268A; assay type: binding, C. jejuni ATCC 33560; conditions: max ligand 2.5 mM
Procedure: as §1, §2

[2] = system: full-length PhoQ or an empty vector; test: GFP reporter assay, control cells; assay type: cell-based, E. coli MG1655/ΔPhoQ; conditions: 40 min
Procedure: The reporter plasmid pUA66-PmgtLA-GFP and the plasmid encoding the hybrid kinase were together transformed into E. coli MG1655/ΔPhoQ strain. E. coli cells containing the reporter and Tlp11-PhoQ chimera were incubated in Medium A, at 37°C, with shaking (200 rpm), until an OD600 of 0.4 was attained, following which different concentrations of methyl pyruvate were added to the medium and the cells were incubated for 40 min. The fluorescence intensity of the cells was monitored using a plate reader (Varioskan™ LUX, Life Technologies) equipped with a 488 nm laser and a 528/12 bandpass filter. The acquired data were analyzed using Prism 8.0.2.
To construct the signal input module, we fused the Tlp11-LBD with the PhoQ cytoplasmic region, to design the Tlp11-PhoQ hybrid kinases (Supplementary Figure S6), Tlp11[1-337]-PhoQ[200-486] (Tlp337PhoQ200), Tlp11[1-339]-PhoQ[200-486] (Tlp339PhoQ200), Tlp11[1-339]-PhoQ[201-486] (Tlp339PhoQ201), Tlp11[1-340]-PhoQ[202-486] (Tlp340PhoQ202), Tlp11[1-340]-PhoQ[200-486] (Tlp340PhoQ200), Tlp11[1-341]-PhoQ[202-486] (Tlp341PhoQ202), Tlp11[1-342]-PhoQ[[…]] (Tlp342PhoQ202), Tlp11[1-343]-PhoQ[202-486] (Tlp343PhoQ202), which connected Tlp11 and PhoQ in TM2 (Supplementary Figure S7C). The activity of each chimera in sensing methyl pyruvate was determined by measuring the fluorescence intensity of GFP in the E. coli MG1655/ΔPhoQ strain.

Tlp11-LBD I276A = test: MST of Tlp11-LBD mutant I276A; assay type: binding, C. jejuni ATCC 33560; conditions: max ligand 2.5 mM
Procedure: as §1, §2

Tlp11-LBD L264A = test: MST of Tlp11-LBD mutant L264A; assay type: binding, C. jejuni ATCC 33560; conditions: max ligand 2.5 mM
Procedure: as §1, §2

[3] = system: C. jejuni WT NCTC 11168 cells; assay type: cell-based, Campylobacter jejuni; conditions: WT NCTC 11168 cells; microfluidic device, 30 min
[4] = system: pin-head Tar (Tar without LBD) or WT Tar; test: Microfluidic chemotaxis of E. coli expressing pin-head Tar or WT Tar; assay type: cell-based, E. coli VS188; conditions: microfluidic device, 50 min

COC(=O)C(C)=O [methyl pyruvate, Methyl pyruvate]
Kd [1]: 1200 ± 400 µM | effect on growth of C. jejuni ATCC 33560 (C. jejuni ATCC 33560): significantly promoted the growth | Kd (binding curve fit) (Tlp11-LBD Y291A): unable to obtain fitted Kd values | Kd (binding curve fit) (Tlp11-LBD T320A): unable to obtain fitted Kd values | Kd (binding curve fit) (Tlp11-LBD N268A): unable to obtain fitted Kd values | response (GFP fluorescence intensity) of control cells [2]: almost no response | Kd (binding curve fit) (Tlp11-LBD I276A): unable to obtain fitted Kd values | Kd (binding curve fit) (Tlp11-LBD L264A): unable to obtain fitted Kd values | chemotactic response [3]: failed to show any chemotaxis | chemotactic response of E. coli expressing pin-head Tar or WT Tar as the sole chemoreceptor [4]: no response or a much weaker response
